Data taken from publication PMC12090182, “Repurposing of the RIPK1-Selective Benzo[1,4]oxazepin-4-one Scaffold for the Development of a Type III LIMK1/2 Inhibitor” (ACS Chemical Biology, 2025).

Assays:
Assay in all cases: scanMAX KINOMEscan (Eurofins)
Format in all cases: binding
[1] = biological target: FRK (Homo sapiens, UniProt P42685); settings: 1000 nM, read-out: Percent Control
From the text: (§1) Supplement cb5c00097_si_002.xlsx, sheet "Table S6 (Eurofins Selectivity)" | column: Percent Control

[2] = biological target: HUNK (Homo sapiens, UniProt P57058); settings: read-out: Percent Control
From the text: as §1

[3] = biological target: MARK2 (Homo sapiens, UniProt Q7KZI7); settings: 1000 nM, read-out: Percent Control
From the text: as §1

[4] = biological target: ERK5 (Homo sapiens, UniProt Q13164); settings: 1000 nM, read-out: Percent Control
From the text: as §1

[5] = biological target: RSK2(Kin.Dom.2-C-terminal) (Homo sapiens, UniProt P51812); settings: 1000 nM, read-out: Percent Control
From the text: as §1

[6] = biological target: MAP4K5 (Homo sapiens, UniProt Q9Y4K4); settings: 1000 nM, read-out: Percent Control
From the text: as §1

[7] = biological target: RSK3(Kin.Dom.1-N-terminal) (Homo sapiens, UniProt Q15349); settings: 1000 nM, read-out: Percent Control
From the text: as §1

[8] = biological target: MRCKA (Homo sapiens, UniProt Q5VT25); settings: 1000 nM, read-out: Percent Control
From the text: as §1

[9] = biological target: MERTK (Homo sapiens, UniProt Q12866); settings: 1000 nM, read-out: Percent Control
From the text: as §1

[10] = biological target: EPHA2 (Homo sapiens, UniProt P29317); settings: read-out: Percent Control
From the text: as §1

[11] = biological target: TYRO3 (Homo sapiens, UniProt Q06418); settings: 1000 nM, read-out: Percent Control
From the text: as §1

[12] = biological target: p38-beta (Homo sapiens, UniProt Q15759); settings: 1000 nM, read-out: Percent Control
From the text: as §1

[13] = biological target: WNK4 (Homo sapiens, UniProt Q96J92); settings: compound concentration 100 nM; Entrez WNK4; read-out: Percent Control
From the text: as §1

[14] = biological target: PDGFRB (Homo sapiens, UniProt P09619); settings: 1000 nM, read-out: Percent Control
From the text: as §1

[15] = biological target: CDK4-cyclinD1 (Homo sapiens, UniProt P11802); settings: 1000 nM, read-out: Percent Control
From the text: as §1

[16] = biological target: DDR1 (Homo sapiens, UniProt Q08345); settings: read-out: Percent Control
From the text: as §1

[17] = biological target: AMPK-alpha1 (Homo sapiens, UniProt Q13131); settings: 1000 nM, read-out: Percent Control
From the text: as §1

[18] = biological target: CAMK1D (Homo sapiens, UniProt Q8IU85); settings: read-out: Percent Control
From the text: as §1

[19] = biological target: CDK8 (Homo sapiens, UniProt P49336); settings: 1000 nM, read-out: Percent Control
From the text: as §1

[20] = biological target: PAK1 (Homo sapiens, UniProt Q13153); settings: 1000 nM, read-out: Percent Control
From the text: as §1

[21] = biological target: NEK11 (Homo sapiens, UniProt Q8NG66); settings: 1000 nM, read-out: Percent Control
From the text: as §1

[22] = biological target: HIPK2 (Homo sapiens, UniProt Q9H2X6); settings: 1000 nM, read-out: Percent Control
From the text: as §1

[23] = biological target: ROS1 (Homo sapiens, UniProt P08922); settings: 1000 nM, read-out: Percent Control
From the text: as §1

[24] = biological target: EPHB3 (Homo sapiens, UniProt P54753); settings: read-out: Percent Control
From the text: as §1

[25] = biological target: MLK1 (Homo sapiens, UniProt P80192); settings: compound concentration 100 nM; Entrez MAP3K9; read-out: Percent Control
From the text: as §1

[26] = biological target: AKT2 (Homo sapiens, UniProt P31751); settings: read-out: Percent Control
From the text: as §1

[27] = biological target: MLK2 (Homo sapiens, UniProt Q02779); settings: 1000 nM, read-out: Percent Control
From the text: as §1

[28] = biological target: VPS34 (Homo sapiens, UniProt Q8NEB9); settings: compound concentration 100 nM; Entrez PIK3C3; read-out: Percent Control
From the text: as §1

[29] = biological target: MAK (Homo sapiens, UniProt P20794); settings: compound concentration 100 nM; Entrez MAK; read-out: Percent Control
From the text: as §1

[30] = biological target: ERBB4 (Homo sapiens, UniProt Q15303); settings: 1000 nM, read-out: Percent Control
From the text: as §1

[31] = biological target: ERN1 (Homo sapiens, UniProt O75460); settings: read-out: Percent Control
From the text: as §1

[32] = biological target: MKK7 (Homo sapiens, UniProt O14733); settings: read-out: Percent Control
From the text: as §1

[33] = biological target: CDK9 (Homo sapiens, UniProt P50750); settings: 1000 nM, read-out: Percent Control
From the text: as §1

[34] = biological target: TLK1 (Homo sapiens, UniProt Q9UKI8); settings: compound concentration 100 nM; Entrez TLK1; read-out: Percent Control
From the text: as §1

[35] = biological target: MAP4K4 (Homo sapiens, UniProt O95819); settings: 1000 nM, read-out: Percent Control
From the text: as §1

[36] = biological target: MAPKAPK5 (Homo sapiens, UniProt Q8IW41); settings: compound concentration 100 nM; Entrez MAPKAPK5; read-out: Percent Control
From the text: as §1

Sequence of EPHB3 (P54753 34-998): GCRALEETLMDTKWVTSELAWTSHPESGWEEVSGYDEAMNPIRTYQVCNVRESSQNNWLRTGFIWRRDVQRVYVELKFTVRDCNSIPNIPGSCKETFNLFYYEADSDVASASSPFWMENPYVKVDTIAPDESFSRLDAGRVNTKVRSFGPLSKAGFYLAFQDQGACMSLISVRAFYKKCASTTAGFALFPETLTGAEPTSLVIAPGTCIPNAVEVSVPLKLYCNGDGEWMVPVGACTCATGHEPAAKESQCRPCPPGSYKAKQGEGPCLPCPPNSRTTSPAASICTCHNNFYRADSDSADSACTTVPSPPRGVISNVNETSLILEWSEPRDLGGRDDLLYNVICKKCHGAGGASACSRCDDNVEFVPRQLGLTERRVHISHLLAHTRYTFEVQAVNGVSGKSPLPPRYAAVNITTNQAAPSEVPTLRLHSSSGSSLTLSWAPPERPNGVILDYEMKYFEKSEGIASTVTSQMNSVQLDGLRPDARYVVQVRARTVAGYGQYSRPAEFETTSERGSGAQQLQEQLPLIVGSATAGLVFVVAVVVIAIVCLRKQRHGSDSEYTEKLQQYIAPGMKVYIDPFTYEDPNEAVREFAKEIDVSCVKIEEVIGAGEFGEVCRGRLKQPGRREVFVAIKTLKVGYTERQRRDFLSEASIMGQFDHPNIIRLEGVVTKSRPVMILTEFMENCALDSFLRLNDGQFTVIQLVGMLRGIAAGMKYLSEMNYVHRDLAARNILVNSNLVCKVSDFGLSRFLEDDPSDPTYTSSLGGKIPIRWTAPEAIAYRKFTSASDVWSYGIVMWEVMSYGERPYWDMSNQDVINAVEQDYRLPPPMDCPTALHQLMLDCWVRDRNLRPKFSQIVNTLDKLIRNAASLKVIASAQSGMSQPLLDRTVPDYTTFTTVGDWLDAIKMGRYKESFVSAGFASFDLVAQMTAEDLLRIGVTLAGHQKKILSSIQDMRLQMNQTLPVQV
Sequence of DDR1 (Q08345 19-913): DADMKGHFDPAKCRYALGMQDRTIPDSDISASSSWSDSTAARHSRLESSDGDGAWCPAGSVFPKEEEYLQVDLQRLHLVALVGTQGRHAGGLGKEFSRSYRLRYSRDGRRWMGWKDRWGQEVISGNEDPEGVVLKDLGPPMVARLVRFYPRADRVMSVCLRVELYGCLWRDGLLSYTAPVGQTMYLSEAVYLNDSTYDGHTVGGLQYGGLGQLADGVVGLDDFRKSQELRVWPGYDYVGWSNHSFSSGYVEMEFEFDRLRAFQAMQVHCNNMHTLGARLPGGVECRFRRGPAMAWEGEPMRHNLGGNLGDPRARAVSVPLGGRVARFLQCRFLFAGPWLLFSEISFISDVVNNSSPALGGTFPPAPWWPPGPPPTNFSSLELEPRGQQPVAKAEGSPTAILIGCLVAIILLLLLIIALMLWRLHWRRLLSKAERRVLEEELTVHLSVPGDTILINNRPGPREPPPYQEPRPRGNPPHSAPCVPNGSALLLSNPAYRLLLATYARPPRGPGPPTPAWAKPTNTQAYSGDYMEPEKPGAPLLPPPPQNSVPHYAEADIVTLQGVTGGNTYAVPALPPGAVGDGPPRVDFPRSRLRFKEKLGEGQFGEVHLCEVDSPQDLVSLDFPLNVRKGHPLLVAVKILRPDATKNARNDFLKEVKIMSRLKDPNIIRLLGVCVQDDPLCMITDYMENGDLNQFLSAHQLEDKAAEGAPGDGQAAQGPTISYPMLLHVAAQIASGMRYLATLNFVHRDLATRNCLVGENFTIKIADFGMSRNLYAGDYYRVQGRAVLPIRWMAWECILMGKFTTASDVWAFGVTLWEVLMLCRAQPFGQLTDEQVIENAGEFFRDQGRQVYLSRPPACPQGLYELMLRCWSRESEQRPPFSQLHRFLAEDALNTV
Sequence of HUNK (P57058 whole entry): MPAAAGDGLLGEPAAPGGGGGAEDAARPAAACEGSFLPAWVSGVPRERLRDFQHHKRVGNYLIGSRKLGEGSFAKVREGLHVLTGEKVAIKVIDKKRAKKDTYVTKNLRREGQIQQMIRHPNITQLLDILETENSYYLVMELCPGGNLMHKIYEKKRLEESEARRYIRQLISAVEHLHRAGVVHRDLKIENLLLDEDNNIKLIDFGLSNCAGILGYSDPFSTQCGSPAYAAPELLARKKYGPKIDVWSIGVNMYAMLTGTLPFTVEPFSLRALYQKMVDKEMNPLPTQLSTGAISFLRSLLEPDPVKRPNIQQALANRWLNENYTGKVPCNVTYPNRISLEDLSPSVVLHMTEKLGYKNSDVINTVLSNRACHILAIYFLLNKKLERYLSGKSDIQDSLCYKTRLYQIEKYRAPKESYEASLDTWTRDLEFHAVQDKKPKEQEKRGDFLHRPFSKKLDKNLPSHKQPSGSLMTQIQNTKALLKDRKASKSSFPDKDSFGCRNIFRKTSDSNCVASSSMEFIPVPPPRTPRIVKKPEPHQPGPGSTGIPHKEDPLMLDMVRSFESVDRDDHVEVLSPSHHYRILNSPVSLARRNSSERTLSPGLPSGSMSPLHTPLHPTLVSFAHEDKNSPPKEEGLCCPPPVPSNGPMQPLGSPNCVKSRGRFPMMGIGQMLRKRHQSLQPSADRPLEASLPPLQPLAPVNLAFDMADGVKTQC
Sequence of CAMK1D (Q8IU85 whole entry): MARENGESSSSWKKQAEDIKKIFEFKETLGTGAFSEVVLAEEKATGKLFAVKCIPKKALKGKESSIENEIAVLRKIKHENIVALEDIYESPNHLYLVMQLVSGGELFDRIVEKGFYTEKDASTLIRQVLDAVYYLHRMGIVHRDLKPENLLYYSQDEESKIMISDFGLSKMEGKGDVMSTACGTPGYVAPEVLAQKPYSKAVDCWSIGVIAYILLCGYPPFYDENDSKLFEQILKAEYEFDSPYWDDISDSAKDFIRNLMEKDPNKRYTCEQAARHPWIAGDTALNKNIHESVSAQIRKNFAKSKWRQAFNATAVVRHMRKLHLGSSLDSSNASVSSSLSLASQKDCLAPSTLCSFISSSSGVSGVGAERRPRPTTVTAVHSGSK
Sequence of MKK7 (O14733 whole entry): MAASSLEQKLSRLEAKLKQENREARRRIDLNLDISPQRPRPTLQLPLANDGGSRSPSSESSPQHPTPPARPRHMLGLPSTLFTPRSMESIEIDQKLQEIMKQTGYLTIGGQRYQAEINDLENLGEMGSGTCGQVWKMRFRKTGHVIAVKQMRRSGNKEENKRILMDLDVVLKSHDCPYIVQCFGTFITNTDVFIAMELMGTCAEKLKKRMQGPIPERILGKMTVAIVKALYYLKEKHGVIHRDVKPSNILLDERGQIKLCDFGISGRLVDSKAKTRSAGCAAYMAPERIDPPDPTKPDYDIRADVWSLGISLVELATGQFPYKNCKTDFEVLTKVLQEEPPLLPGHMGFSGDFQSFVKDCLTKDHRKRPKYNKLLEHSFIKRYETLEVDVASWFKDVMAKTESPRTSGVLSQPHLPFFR
Sequence of ERN1 (O75460 19-977): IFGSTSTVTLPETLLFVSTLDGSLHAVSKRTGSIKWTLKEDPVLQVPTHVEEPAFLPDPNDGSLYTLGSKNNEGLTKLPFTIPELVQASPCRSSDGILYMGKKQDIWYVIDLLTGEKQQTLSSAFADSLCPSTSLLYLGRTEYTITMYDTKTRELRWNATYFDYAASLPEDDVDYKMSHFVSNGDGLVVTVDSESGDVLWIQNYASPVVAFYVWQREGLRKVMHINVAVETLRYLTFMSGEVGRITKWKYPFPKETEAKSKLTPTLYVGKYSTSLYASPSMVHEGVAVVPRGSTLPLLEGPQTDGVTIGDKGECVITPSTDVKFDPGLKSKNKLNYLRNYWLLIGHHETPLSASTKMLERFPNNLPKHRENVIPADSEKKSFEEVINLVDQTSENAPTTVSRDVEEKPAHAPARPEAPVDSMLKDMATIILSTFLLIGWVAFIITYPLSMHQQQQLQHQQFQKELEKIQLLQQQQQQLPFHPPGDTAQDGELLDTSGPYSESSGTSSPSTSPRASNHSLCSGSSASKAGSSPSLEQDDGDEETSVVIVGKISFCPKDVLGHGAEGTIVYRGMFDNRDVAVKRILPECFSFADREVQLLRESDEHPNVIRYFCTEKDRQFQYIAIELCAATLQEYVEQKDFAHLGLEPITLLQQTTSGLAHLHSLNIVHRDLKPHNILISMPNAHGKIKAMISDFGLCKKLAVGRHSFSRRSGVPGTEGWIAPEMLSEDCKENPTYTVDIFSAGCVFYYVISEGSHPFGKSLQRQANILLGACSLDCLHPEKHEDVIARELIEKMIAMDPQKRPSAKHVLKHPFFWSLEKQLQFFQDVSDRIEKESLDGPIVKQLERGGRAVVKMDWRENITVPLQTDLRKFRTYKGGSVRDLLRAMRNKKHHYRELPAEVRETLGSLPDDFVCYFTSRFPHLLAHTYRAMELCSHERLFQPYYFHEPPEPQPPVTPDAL
Sequence of AKT2 (P31751 whole entry): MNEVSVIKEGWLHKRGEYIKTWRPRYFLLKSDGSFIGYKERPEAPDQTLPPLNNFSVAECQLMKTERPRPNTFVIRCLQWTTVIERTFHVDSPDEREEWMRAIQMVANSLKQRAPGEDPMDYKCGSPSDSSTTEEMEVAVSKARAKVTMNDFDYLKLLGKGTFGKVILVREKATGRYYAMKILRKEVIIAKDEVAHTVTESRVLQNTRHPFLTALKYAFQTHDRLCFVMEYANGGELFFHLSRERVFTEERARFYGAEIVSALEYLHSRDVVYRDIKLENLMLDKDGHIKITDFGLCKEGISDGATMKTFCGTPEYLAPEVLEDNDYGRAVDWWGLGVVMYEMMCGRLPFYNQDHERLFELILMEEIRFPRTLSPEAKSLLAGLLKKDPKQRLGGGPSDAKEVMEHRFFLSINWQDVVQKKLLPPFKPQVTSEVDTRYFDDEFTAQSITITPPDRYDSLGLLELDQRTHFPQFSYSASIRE

SMILES: CN1C(=O)[C@@H](N2CCc3c(nn(Cc4ccccc4)c3C(N)=O)C2=O)COc2cc(Cl)ccc21 [Compound 10, (S)-2-benzyl-6-(8-chloro-5-methyl-4-oxo-2,3,4,5-tetrahydrobenzo[b][1,4]oxazepin-3-yl)-7-oxo-4,5,6,7-tetrahydro-2H-pyrazolo[3,4-c]pyridine-3-carboxamide]
- remaining binding at 1 µM [1]: 81%
- remaining binding at 1 µM ([2]; 1000 nM): 100%
- remaining binding at 0.1 µM ([2]; compound concentration 100 nM, Entrez HUNK): 82%
- remaining binding at 1 µM [3]: 81%
- remaining binding at 1 µM [4]: 86%
- remaining binding at 1 µM [5]: 88%
- remaining binding at 1 µM [6]: 88%
- remaining binding at 1 µM [7]: 93%
- remaining binding at 1 µM [8]: 88%
- remaining binding at 1 µM [9]: 98%
- remaining binding at 1 µM ([10]; 1000 nM): 100%
- remaining binding at 0.1 µM ([10]; compound concentration 100 nM, Entrez EPHA2): 100%
- remaining binding at 1 µM [11]: 97%
- remaining binding at 1 µM [12]: 97%
- remaining binding at 0.1 µM [13]: 100%
- remaining binding at 1 µM [14]: 87%
- remaining binding at 1 µM [15]: 72%
- remaining binding at 1 µM ([16]; 1000 nM): 100%
- remaining binding at 0.1 µM ([16]; compound concentration 100 nM, Entrez DDR1): 77%
- remaining binding at 1 µM [17]: 87%
- remaining binding at 1 µM ([18]; 1000 nM): 100%
- remaining binding at 0.1 µM ([18]; compound concentration 100 nM, Entrez CAMK1D): 92%
- remaining binding at 1 µM [19]: 92%
- remaining binding at 1 µM [20]: 76%
- remaining binding at 1 µM [21]: 78%
- remaining binding at 1 µM [22]: 81%
- remaining binding at 1 µM [23]: 88%
- remaining binding at 1 µM ([24]; 1000 nM): 100%
- remaining binding at 0.1 µM ([24]; compound concentration 100 nM, Entrez EPHB3): 71%
- remaining binding at 0.1 µM [25]: 89%
- remaining binding at 1 µM ([26]; 1000 nM): 100%
- remaining binding at 0.1 µM ([26]; compound concentration 100 nM, Entrez AKT2): 90%
- remaining binding at 1 µM [27]: 94%
- remaining binding at 0.1 µM [28]: 100%
- remaining binding at 0.1 µM [29]: 94%
- remaining binding at 1 µM [30]: 87%
- remaining binding at 1 µM ([31]; 1000 nM): 100%
- remaining binding at 0.1 µM ([31]; compound concentration 100 nM, Entrez ERN1): 100%
- remaining binding at 1 µM ([32]; 1000 nM): 99%
- remaining binding at 0.1 µM ([32]; compound concentration 100 nM, Entrez MAP2K7): 91%
- remaining binding at 1 µM [33]: 85%
- remaining binding at 0.1 µM [34]: 88%
- remaining binding at 1 µM [35]: 94%
- remaining binding at 0.1 µM [36]: 96%
